Results as given in ChEMBL document CHEMBL5390248, “Design, synthesis and anticancer activity evaluation of 4-(3-1H-indazolyl)amino quinazoline derivatives as PAK4 inhibitors” (Bioorg Med Chem, 2023).
One block for each molecule: values may come before it.

Legend:
[1] = target: T1, Serine/threonine-protein kinase PAK 4 (Homo sapiens, UniProt O96013); test: Inhibition of PAK4 (unknown origin) using lipid substrate incubated for 40 mins in presence of ATP by ADP-Glo plus luminescence kinase assay
Target sequence in this assay (O96013 whole entry): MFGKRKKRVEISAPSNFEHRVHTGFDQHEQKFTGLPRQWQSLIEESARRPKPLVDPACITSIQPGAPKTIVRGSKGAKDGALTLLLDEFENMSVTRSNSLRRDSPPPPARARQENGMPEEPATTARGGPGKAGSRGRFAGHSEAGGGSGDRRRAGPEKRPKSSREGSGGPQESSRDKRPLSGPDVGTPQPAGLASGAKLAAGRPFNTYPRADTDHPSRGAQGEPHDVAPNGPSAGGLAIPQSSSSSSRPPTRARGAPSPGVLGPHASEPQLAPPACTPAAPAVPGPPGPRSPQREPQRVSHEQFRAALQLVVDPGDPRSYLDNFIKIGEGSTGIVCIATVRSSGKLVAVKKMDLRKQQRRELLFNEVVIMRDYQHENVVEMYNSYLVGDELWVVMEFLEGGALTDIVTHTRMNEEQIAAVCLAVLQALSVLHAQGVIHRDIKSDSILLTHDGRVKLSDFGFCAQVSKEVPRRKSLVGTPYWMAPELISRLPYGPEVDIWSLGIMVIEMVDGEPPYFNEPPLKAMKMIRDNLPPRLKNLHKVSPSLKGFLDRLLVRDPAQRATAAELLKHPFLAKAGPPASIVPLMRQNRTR

[2] = Antiproliferative activity against HEK293T cells assessed as inhibition of cell growth incubated for 24 hrs by CCK8 assay; assay type: toxicity, cell-based, HEK-293T; settings: human
[3] = target: T1, Serine/threonine-protein kinase PAK 4; test: Inhibition of PAK4 (unknown origin) using lipid substrate at 100 nM incubated for 40 mins in presence of ATP by ADP-Glo plus luminescence kinase assay relative to control
Target sequence in this assay (O96013 whole entry, looked up): as the sequence (O96013 whole entry) above

[4] = system: A549; test: cells; settings: Homo sapiens, A549, 24 h
[5] = system: A549; test: Antiproliferative activity against human A549 cells assessed as inhibition of cell growth incubated for 72 hrs by CCK8 assay; assay type: functional, cell-based; settings: A549, 72 h
[6] = system: A549; test: cells; settings: Homo sapiens, A549, 72 h
[7] = system: A549; test: Induction of apoptosis in human A549 cells assessed as viable cells at 1 uM measured after 24 hrs by AnnexinV-FITC/propidium iodide staining based flow cytometry method (reference value: 98.7 %); assay type: functional; settings: read-out: Activity
[8] = system: A549; test: Induction of cell cycle arrest in human A549 cells assessed as accumulation of G2 phase cells at 3 uM measured for 24 hrs by PI staining based flow cytometric analysis (reference value: 32.4 % ); assay type: functional
[9] = system: A549; test: Induction of cell cycle arrest in human A549 cells assessed as accumulation of S phase cells at 1 uM measured for 24 hrs by PI staining based flow cytometric analysis (reference value: 35.3 % ); assay type: functional
[10] = system: A549; test: Induction of cell cycle arrest in human A549 cells assessed as accumulation of G2 phase cells at 1 uM measured for 24 hrs by PI staining based flow cytometric analysis (reference value: 32.4 % ); assay type: functional
[11] = system: A549; test: Induction of cell cycle arrest in human A549 cells assessed as accumulation of G1 phase cells at 1 uM measured for 24 hrs by PI staining based flow cytometric analysis (reference value: 27.5 % ); assay type: functional
[12] = system: A549; test: Induction of apoptosis in human A549 cells assessed as early apoptotic cells at 1 uM measured after 24 hrs by AnnexinV-FITC/propidium iodide staining based flow cytometry method (reference value: 0.049 %); assay type: functional
[13] = system: A549; test: Induction of cell cycle arrest in human A549 cells assessed as accumulation of G2 phase cells at 0.5 uM measured for 24 hrs by PI staining based flow cytometric analysis (reference value: 32.4 % ); assay type: functional
[14] = system: A549; test: Induction of apoptosis in human A549 cells assessed as late apoptotic cells at 1 uM measured after 24 hrs by AnnexinV-FITC/propidium iodide staining based flow cytometry method (reference value: 0.12 %); assay type: functional
[15] = system: A549; test: Induction of cell cycle arrest in human A549 cells assessed as accumulation of S phase cells at 3 uM measured for 24 hrs by PI staining based flow cytometric analysis (reference value: 35.3 % ); assay type: functional
[16] = system: A549; test: Induction of apoptosis in human A549 cells assessed as early apoptotic cells at 0.5 uM measured after 24 hrs by AnnexinV-FITC/propidium iodide staining based flow cytometry method (reference value: 0.049 %); assay type: functional
[17] = system: A549; test: Induction of apoptosis in human A549 cells assessed as viable cells at 0.5 uM measured after 24 hrs by AnnexinV FITC/propidium iodide staining based flow cytometry method (reference value: 98.7 %); assay type: functional; settings: read-out: Activity
[18] = system: A549; test: Induction of apoptosis in human A549 cells assessed as viable cells at 3 uM measured after 24 hrs by AnnexinV-FITC/propidium iodide staining based flow cytometry method (reference value: 98.7 %); assay type: functional; settings: read-out: Activity
[19] = system: A549; test: Induction of cell cycle arrest in human A549 cells assessed as accumulation of G1 phase cells at 0.5 uM measured for 24 hrs by PI staining based flow cytometric analysis (reference value: 27.5 % ); assay type: functional
[20] = system: A549; test: Induction of apoptosis in human A549 cells assessed as late apoptotic cells at 0.5 uM measured after 24 hrs by AnnexinV-FITC/propidium iodide staining based flow cytometry method (reference value: 0.12 %); assay type: functional
[21] = system: A549; test: Induction of apoptosis in human A549 cells assessed as necrotic cells at 0.5 uM measured after 24 hrs by AnnexinV-FITC/propidium iodide staining based flow cytometry method (reference value: 1.11 %); assay type: functional
[22] = system: A549; test: Induction of apoptosis in human A549 cells assessed as early apoptotic cells at 3 uM measured after 24 hrs by AnnexinV-FITC/propidium iodide staining based flow cytometry method (reference value: 0.049 %); assay type: functional
[23] = system: A549; test: Induction of cell cycle arrest in human A549 cells assessed as accumulation of G1 phase cells at 3 uM measured for 24 hrs by PI staining based flow cytometric analysis (reference value: 27.5 % ); assay type: functional
[24] = system: A549; test: Induction of cell cycle arrest in human A549 cells assessed as accumulation of S phase cells at 0.5 uM measured for 24 hrs by PI staining based flow cytometric analysis (reference value: 35.3 % ); assay type: functional
[25] = system: A549; test: Induction of apoptosis in human A549 cells assessed as necrotic cells at 3 uM measured after 24 hrs by AnnexinV-FITC/propidium iodide staining based flow cytometry method (reference value: 1.11 %); assay type: functional
[26] = system: A549; test: Induction of apoptosis in human A549 cells assessed as late apoptotic cells at 3 uM measured after 24 hrs by AnnexinV-FITC/propidium iodide staining based flow cytometry method (reference value: 0.12 %); assay type: functional
[27] = system: A549; test: Induction of apoptosis in human A549 cells assessed as necrotic cells at 1 uM measured after 24 hrs by AnnexinV-FITC/propidium iodide staining based flow cytometry method (reference value: 1.11 %); assay type: functional

IC50 [1]: 9 nM
inhibition [3]: 77%
IC50 [4]: 2280 nM
Structure (SMILES): N[C@H](CNC(=O)c1nc(Nc2n[nH]c3ccccc23)c2cc(Cl)ccc2n1)Cc1ccccc1
IC50 at 24 h [2]: > 10000 nM

inhibition [3]: 4%
Structure (SMILES): CN(C)CCNC(=O)c1nc(Nc2n[nH]c3ccccc23)c2cc(Cl)ccc2n1

inhibition [3]: 35%
Structure (SMILES): C[C@@H](N)CNC(=O)c1nc(Nc2n[nH]c3ccccc23)c2cc(Cl)ccc2n1

IC50 [1]: 11 nM
inhibition [3]: 75%
Structure (SMILES): N[C@@H](CNC(=O)c1nc(Nc2n[nH]c3ccccc23)c2cc(Cl)ccc2n1)Cc1ccccc1

IC50 [1]: 16 nM
inhibition [3]: 76%
Structure (SMILES): CC(C)[C@H](N)CNC(=O)c1nc(Nc2n[nH]c3ccccc23)c2cc(Cl)ccc2n1

inhibition [3]: 25%
Structure (SMILES): C[C@H](N)CNC(=O)c1nc(Nc2n[nH]c3ccccc23)c2cc(Cl)ccc2n1

inhibition [3]: 10%
Structure (SMILES): O=C(NC1CNC1)c1nc(Nc2n[nH]c3ccccc23)c2cc(Cl)ccc2n1

inhibition [3]: 11%
Structure (SMILES): CN(C)CCCNC(=O)c1nc(Nc2n[nH]c3ccccc23)c2cc(Cl)ccc2n1

IC50 [1]: 24 nM
inhibition [3]: 70%
Structure (SMILES): N[C@H](CNC(=O)c1nc(Nc2n[nH]c3ccccc23)c2cc(Cl)ccc2n1)c1ccccc1

inhibition [3]: 15%
Structure (SMILES): O=C(NCC1CNC1)c1nc(Nc2n[nH]c3ccccc23)c2cc(Cl)ccc2n1

inhibition [3]: 3%
Structure (SMILES): CNC[C@H](C)NC(=O)c1nc(Nc2n[nH]c3ccccc23)c2cc(Cl)ccc2n1

IC50 [5]: 2530 nM
Structure (SMILES): Cc1cc(Nc2cc(Cc3ccccc3)nc(NC3CCNCC3)n2)n[nH]1

inhibition [3]: 4%
Structure (SMILES): O=C(c1nc(Nc2n[nH]c3ccccc23)c2cc(Cl)ccc2n1)N1CCNCC1

inhibition [3]: 81%
IC50 [4]: 670 nM
IC50 [6]: 20 nM
Structure (SMILES): Cc1nc(Nc2n[nH]c3c2CN(C(=O)N[C@H](CN(C)C)c2ccccc2)C3(C)C)c2sccc2n1 [PF-03758309]
IC50 at 24 h [2]: > 10000 nM

inhibition [3]: 10%
Structure (SMILES): C[C@@H]1CN(C(=O)c2nc(Nc3n[nH]c4ccccc34)c3cc(Cl)ccc3n2)CCN1

inhibition [3]: 3%
Structure (SMILES): O=C(NCCO)c1nc(Nc2n[nH]c3ccccc23)c2cc(Cl)ccc2n1

IC50 [1]: 13 nM
inhibition [3]: 78%
IC50 [4]: 1900 nM
Structure (SMILES): N[C@@H](CNC(=O)c1nc(Nc2n[nH]c3ccccc23)c2cc(Cl)ccc2n1)c1ccccc1
IC50 at 24 h [2]: > 10000 nM

inhibition [3]: 2%
Structure (SMILES): NCCNC(=O)c1nc(Nc2n[nH]c3ccccc23)c2cc(Cl)ccc2n1

IC50 [1]: 10 nM
inhibition [3]: 73%
IC50 [4]: 610 nM
Structure (SMILES): CC(C)[C@@H](N)CNC(=O)c1nc(Nc2n[nH]c3ccccc23)c2cc(Cl)ccc2n1
viability at 1 µM [7]: 64.2%
Activity [8]: 21.9%
Activity [9]: 31.2%
Activity [10]: 22.7%
Activity [11]: 45.2%
Activity [12]: 27%
Activity [13]: 28.9%
IC50 at 24 h [2]: > 10000 nM
Activity [14]: 4.83%
Activity [15]: 26%
Activity [16]: 15.1%
viability at 0.5 µM [17]: 81.6%
viability at 3 µM [18]: 50.5%
Activity [19]: 34.1%
Activity [20]: 1.1%
Activity [21]: 2.2%
Activity [22]: 41%
Activity [23]: 50.9%
Activity [24]: 35%
Activity [25]: 4.6%
Activity [26]: 3.97%
Activity [27]: 3.96%

inhibition [3]: 3%
Structure (SMILES): CNCCNC(=O)c1nc(Nc2n[nH]c3ccccc23)c2cc(Cl)ccc2n1

inhibition [3]: 3%
Structure (SMILES): C[C@H]1CN(C(=O)c2nc(Nc3n[nH]c4ccccc34)c3cc(Cl)ccc3n2)CCN1

inhibition [3]: 27%
Structure (SMILES): CNC[C@@H](C)NC(=O)c1nc(Nc2n[nH]c3ccccc23)c2cc(Cl)ccc2n1
